This note sets out measurements from patent publication US8178530B2, “Imidazolopyrazine compounds useful for the treatment of degenerative and inflammatory diseases” (Janssen Pharmaceutica NV, priority 2006, dated 2012).

This experiment concerns MMP1 expression by SFs. Nature of the experiment: 'MMP assay': MMP1 expression by 'complex trigger' activated synovial fibroblasts (MMP1 ELISA). The settings on record: RASFs, 48 hrs. Format: cell-based, human.

The term EC50 denotes the concentration at which the effect is half-maximal. Turning to `NC(=O)c1cnc(-c2cnc(Nc3ccc(N4CCOCC4)cc3)c3nccn23)s1` [Compound 158, 2-[8-(4-Morpholin-4-yl-phenylamino)-imidazo[1,2-a]pyrazin-5-yl]-thiazole-5-carboxylic acid amide], the EC50 (Homo sapiens, Fibroblast) was above 1000 nM.
Regarding “4-(8-{4-[1-(2,2,2-Trifluoroethyl)piperidin-4-yl]phenylamino}imidazo[1,2-a]pyrazin-5-yl)thiophene-2-carboxylic acid amide [Compound 192]”, the EC50 is 501 to 1000 nM.
On to `C[C@@H]1CN(c2ccc(Nc3ncc(-c4ccc(C(N)=O)cc4)n4ccnc34)cc2)C[C@H](C)N1C` [Compound 155], for which the EC50 (Homo sapiens, Fibroblast) lay in the range of 101 to 500 nM.
The same measure, in the same setting: as for `CN1CCN(c2ccc(Nc3ncc(-c4cc(C(N)=O)cs4)n4ccnc34)cc2)CC1` [Compound 145, 5-{8-[4-(4-Methyl-piperazin-1-yl)-phenylamino]-imidazo[1,2-a]pyrazin-5-yl}-thiophene-3-carboxylic acid amide], the figure is 501 to 1000 nM; as for `CN1CCN(c2ccc(Nc3ncc(-c4ccnc(F)c4)n4ccnc34)cc2)CC1` [Compound 125, [5-(2-Fluoro-pyridin-4-yl)-imidazo[1,2-a]pyrazin-8-yl]-[4-(4-methyl-piperazin-1-yl)-phenyl]-amine], above 1000 nM.
For the compound `O=C1NCc2cc(-c3cnc(Nc4cccnc4)c4nccn34)ccc21` [Compound 197], the EC50 (Homo sapiens, Fibroblast) lay within 501 to 1000 nM.
The same measure, in the same setting: as for `CCN(CC)CCNC(=O)c1ccc(Nc2ncc(-c3cn[nH]c3)n3ccnc23)c(F)c1` [Compound 83], the figure is above 1000 nM.
Same read-out and setting: as for `CN1CCN(c2ccc(Nc3ncc(-c4cscn4)n4ccnc34)cc2)CC1` [Compound 138], the figure is above 1000 nM; as for `O=C(NCc1ccc(O)cc1)c1ccc(Nc2ncc(-c3cn[nH]c3)n3ccnc23)cc1` [Compound 90, N-(4-Hydroxybenzyl)-4-[5-(1H-pyrazol-4-yl)imidazo[1,2-a]pyrazin-8-ylamino]benzamide], 101 to 500 nM; as for `CN1CCN(c2ccc(Nc3ncc(-c4cn[nH]c4)n4ccnc34)cc2)CC1` [Compound 14], above 1000 nM.
For `NC(=O)c1ccc(-c2cnc(Nc3ccc(N4CCCCC4)cc3)c3nccn23)cc1` [Compound 144], the EC50 (Homo sapiens, Fibroblast) was 101 to 500 nM.
Same read-out and setting: as for `CC(C)N1CCN(c2ccc(Nc3ncc(-c4ccc5c(c4)CNC5=O)n4ccnc34)cn2)CC1` [Compound 210, 5-{8-[6-(4-Isopropyl-piperazin-1-yl)-pyridin-3-ylamino]-imidazo[1,2-a]pyrazin-5-yl}-2,3-dihydro-isoindol-1-one], the figure is 501 to 1000 nM.
`NC(=O)c1ccc(-c2cnc(Nc3ccc(-n4ccnc4)cc3)c3nccn23)cc1` [Compound 167]: under “Homo sapiens, Fibroblast”, the EC50 is above 1000 nM.
Same read-out and setting: as for `Cn1cnnc1-c1ccc(Nc2ncc(-c3ccc(C(N)=O)cc3)n3ccnc23)cc1` [Compound 141], the figure is 501 to 1000 nM; as for `O=C(NC1CCNC1)c1ccc(Nc2ncc(-c3cn[nH]c3)n3ccnc23)cc1` (centres unmarked) [Compound 55], above 1000 nM.
Turning to `CCN(CC)CCNS(=O)(=O)c1ccc(Nc2ncc(-c3cn[nH]c3)n3ccnc23)cc1` [Compound 69, N-(2-Diethylaminoethyl)-4-[5-(1H-pyrazol-4-yl)imidazo[1,2-a]pyrazin-8-ylamino]benzenesulfonamide], for the setting “Homo sapiens, Fibroblast”, the EC50 is above 1000 nM.
Same read-out and setting: as for `CCN(CC)CCNS(=O)(=O)c1ccc(Nc2ncc(-c3ccc(C(N)=O)cc3)n3ccnc23)cc1` [Compound 98], the figure is 501 to 1000 nM.
